# pIC50: −log10 of the molar value.
# Experiments:
# human bronchial muscle = human bronchial muscle contraction stimulated by anti-human IgE; format: cell-based; conditions: for pIC50: contraction stimulated by anti-human IgE (1/1000), read-out: ED50 human bronchial muscle
# Description: For the measurement of human bronchial muscle contraction, bronchial rings were obtained from patients undergoing surgical resection of the lungs typical for lung cancer. The muscle rings were set up in organ baths under an initial load of 3 g and contracted with 100 μM acetylcholine in Tyrode's solution to provide a standardized contraction. The organs were then washed until they returned to the baseline tension in Tyrode's solution containing atropine 1 μM, indomethacin 3 μM and polaramine 1 μM at 37° C.
# Contraction was stimulated by the treatment of the muscle strips with anti-human IgE (1/1000) with or without LSI. The intensity of the contractions were expressed as the percentage of the acetylcholine-inducedcontraction. The percentage of inhibition by the LSI was calculated from the ratio of the relative contractions. The activity of several of the well known LSIs of other structural classes (Zileuton & MK886) are compared below with the quinolines of the present invention.
# edema of the mouse ear = test: Mouse Ear Inflammation Test (arachidonic acid-induced edema); format: in vivo; conditions: oral, 60 minutes before arachidonic acid, swelling at 30 minutes, averaged over several experiments, read-out: Edema formation - ED50
# Description: Because it is known that leukotrienes are the major mediators of the edema which follows the application of arachidonic acid on the skin of the mouse ear and because the human clinical trials have implicated leukotrienes in the pathology of Inflammatory Bowel Disease (IBD), the mouse ear inflammation test can be used as a model to predict efficacy in IBD.
# In this test edema is induced by the topical application of 10 μl of a 20% arachidonic acid solution on the mouse ear. 60 minutes before arachidonic acid application the animals were treated orally with compound or vehicle. 30 minutes after the induction of inflammation the swelling of the ear was measured. The results averaged over several experiments are shown below.
# [1] = system: LTB4 / human blood polymorphonuclear leukocytes (PMN); test: response of human blood polymorphonuclear leukocytes (PMN): A23187-stimulated LTB4 in human whole blood; format: cell-based; conditions: Leukocyte, 0.5 h, LTB4, 30 μM ionophore A23187, 30 min, 37° C., read-out: ED50 human whole blood
# Description: For evaluation of the response of human blood polymorphonuclear leukocytes (PMN), 0.5 ml aliquots of human blood with heparin as the anticoagulant are preincubated for 10 minutes with 2 μl dimethylsulfoxide (DMSO) alone or with DMSO containing the compound to be tested (shaken in water bath at 37° C.).
# The PMN are then stimulated with a final concentration 30 μM of the ionophore A23187 for 30 minutes at 37° C. The reaction is terminated with 1 ml methanol. The incubate is cooled 20 minutes in an ice bath, vortexed, then centrifuged at 13,000 g.
# The amount of LTB4 present in the removed supernatant is analysed by HPLC and/or radioimmune assays.
# [2] = system: TNBS-induced colitis in rats; test: TNBS-induced colitis in rats: colonic damage; format: in vivo, Male Wistar rats; conditions: 30 and 100 mg/kg orally bid, 7 days; 14 days following induction; vs placebo
# Description: (§1) A colitis resembling human ulcerative colitis can be induced in rats by the intracolonic infusion of trinitrobenzene sulfonic acid (Wallace et al., 1990, Am J Physiol. 258:G527-34).
# (§2) Male Wistar rats were lightly anesthetized with ether, and a 2.3 mm rubber cannula inserted into the lumen of the colon via the anus. The cannula was advanced so that the tip was approximately 8 cm proximal to the anus. Colitis is induced by the administration of 0.25 ml of 50% ethanol (vol/vol) containing 30 mg of 2,4,6-trinitrobenzene sulfonic acid (TNB) through the cannula. After instilling the TNB-ethanol solution, the cannula was left in place for a few seconds then gently removed.
# (§3) Animals were sacrificed at various time intervals after the administration of TNB-ethanol for examination of the level of LTB4 in the tissue and for histological examination.
# R-(-)-2-cyclopentyl-2-[4-(2-quinolinyl-methoxy)-phenyl]-acetic acid, at doses of 30 and 100 mg/kg or placebo is administered orally to these animals bid beginning 2 hours before induction of colitis and continuing for the next 7 days. Two hours after the administration of the test compound, animals are sacrificed and samples of the grossly inflammed colonic tissue are excised and incubated in vitro for 20 minutes. […]
# TxB2 = test: TNBS-induced colitis in rats: TxB2 synthesis by excised colonic tissue; format: in vivo, Male Wistar rats; conditions: 30 and 100 mg/kg orally bid, 7 days; tissue incubated in vitro 20 minutes
# Description: as §1, §2, §3
# (§4) R-(-)-2-cyclopentyl-2-[4-(2-quinolinyl-methoxy)-phenyl]-acetic acid, at doses of 30 and 100 mg/kg or placebo is administered orally to these animals bid beginning 2 hours before induction of colitis and continuing for the next 7 days. Two hours after the administration of the test compound, animals are sacrificed and samples of the grossly inflammed colonic tissue are excised and incubated in vitro for 20 minutes.
# LTB4 = test: TNBS-induced colitis in rats: LTB4 synthesis by excised colonic tissue; format: in vivo, Male Wistar rats; conditions: 30 and 100 mg/kg orally bid, 7 days; tissue incubated in vitro 20 minutes
# Description: as §1, §2, §3, §4
# bronchodilator in man = conditions: compared with prediction from inhibition of neutrophil-dependent LTB4 synthesis at blood concentration; cited from earlier work
# [3] = system: Dextran Sulfate-induced colitis in mice; test: Dextran Sulfate-induced colitis in mice; format: in vivo; conditions: 10 mg/kg or 30 mg/kg orally bid; 5% dextran sulfate in drinking water
# Excerpt: Mice, when provided 5% high molecular weight dextran sulfate in their drinking water for 5-7 days, develop an acute colitis with diarrhea, gross rectal bleeding, and weight loss (Okayasu et al., 1990, Gastroenterol, 98:694-702).
Compound,pIC50 (human bronchial muscle),ED50 (edema of the mouse ear) [mg/kg],pIC50 [1],further results
"CC(C)Cc1cc(C(C(=O)O)C2CCCCCC2)ccc1OCc1ccc2ccccc2n1 (single isomer, unassigned; (-)) [Formula III, (-)-2-cycloheptyl-2-[3-isobutyl-4-(2-quinolinyl-methoxy)-phenyl]-acetic acid]",6.00,12.5,5.52,
"O=C(O)C(O)(c1ccc(OCc2ccc3ccccc3n2)cc1)C1Cc2ccccc2C1 (single isomer, unassigned; (-)) [Formula IV, (-)-2-hydroxy-2-(2-indanyl)-2-[4-(2-quinolinyl-methoxy)-phenyl]-acetic acid]",7.00,15,5.35,
"O=C(O)[C@@H](c1ccc(OCc2ccc3ccccc3n2)cc1)C1CCCC1 [Formula I, R-(-)-2-cyclopentyl-2-[4-(2-quinolinyl-methoxy)-phenyl]-acetic acid]",6.10,48.7,4.77,frequency and extent of the ulcerations [2]: reduces both the frequency of adhesions and the frequency and extend of the ulcerations; frequency of adhesions [2]: reduces both the frequency of adhesions; synthesis of TxB2 in culture supernatants of inflamed colonic tissue (TxB2): not of TxB2; synthesis of LTB4 in culture supernatants of inflamed colonic tissue (LTB4): markedly inhibited; activity as a bronchodilator in man (bronchodilator in man): considerably greater than would have been predicted
"CS(=O)(=O)NC(=O)[C@@H](c1ccc(OCc2ccc3ccccc3n2)cc1)C1CCCCCC1 [Formula II, R-(-)-2-cycloheptyl-N-methylsulfonyl-2-[4-(2-quinolinyl-methoxy)-phenyl]-acetamide]",6.10,5.2,5.96,occult blood in the stool [3]: reduction in occult blood in the stool; stool consistency [3]: improvement in stool consistency; symptoms of colitis [3]: decrease in the symptoms of colitis; weight loss [3]: reduction in weight loss
"CC(C)c1ccc2c(c1)c(SC(C)(C)C)c(CC(C)(C)C(=O)O)n2Cc1ccc(Cl)cc1 [MK886, reference compound]",,~100,6.37,"percentage of inhibition, human bronchial muscle (human bronchial muscle; @ μM (concentration not given), anti-human IgE (1/1000)): 0-39%"
"CC(c1cc2ccccc2s1)N(O)C(N)=O (stereo not drawn) [Zileuton, reference compound]",,47.4,6.16,"inhibition at 1 µM (human bronchial muscle; @ 1 μM, anti-human IgE (1/1000), read-out: percentage of inhibition, human bronchial muscle): 4%"

# Reference: patent US5391555A, “Methods for treating inflammatory bowel disease with leukotriene synthesis inhibitors” (Miles Inc., priority 1993, dated 1995)
